# Test: evaluation of solubility in water (dissolving at 40° C., then deposition on ice bath at 0° C.)
# Assay type: physicochemical
# Conditions: for Solubility of 0° C.: time to deposition, aqueous solution (20 g/100 mL) on ice bath under stirring; for Solubility at 40° C.: time to dissolve 20 g sample in 100 mL water on warm bath at 40° C., stirred
# Description: Compounds I-1, I-2, I-4, I-11, I-12, and I-22 obtained above, and the Comparison Compounds a, b, c and d were subjected to evaluation of solubility in water.
# Water (100 mL) was added to 20 g of each sample, and the mixture was placed on a warm bath (at 40° C.), and stirred using a magnetic stirrer, so that the added sample was dissolved in the warm water. Then, the obtained aqueous solution was placed on an ice bath under stirring.
SMILES,Solubility of 0° C.,Solubility at 40° C.
O=S(=O)([O-])CCNc1nc(NCC(O)CO)nc(Nc2ccc(C=Cc3ccc(Nc4nc(NCCS(=O)(=O)[O-])nc(NCC(O)CO)n4)cc3S(=O)(=O)[O-])c(S(=O)(=O)[O-])c2)n1.[Na+].[Na+].[Na+].[Na+] (stereo not shown) [Comp. I-1],No deposition within 180 sec.,dissolved within 120 sec.
O=S(=O)([O-])CCNc1nc(NCCC(O)CO)nc(Nc2ccc(C=Cc3ccc(Nc4nc(NCCC(O)CO)nc(NCCS(=O)(=O)[O-])n4)cc3S(=O)(=O)[O-])c(S(=O)(=O)[O-])c2)n1.[Na+].[Na+].[Na+].[Na+] (stereo not shown) [Comp. I-4],No deposition within 180 sec.,
O=S(=O)([O-])CCNc1nc(NCCOCCO)nc(Nc2ccc(C=Cc3ccc(Nc4nc(NCCOCCO)nc(NCCS(=O)(=O)[O-])n4)cc3S(=O)(=O)[O-])c(S(=O)(=O)[O-])c2)n1.[Na+].[Na+].[Na+].[Na+] [Comp. I-11],No deposition within 180 sec.,dissolved within 120 sec.
"O=S(=O)([O-])CCNc1nc(NCCCO)nc(Nc2ccc(C=Cc3ccc(Nc4nc(NCCCO)nc(NCCS(=O)(=O)[O-])n4)cc3S(=O)(=O)[O-])c(S(=O)(=O)[O-])c2)n1.[Na+].[Na+].[Na+].[Na+] [Comp. a, reference compound]",,some insoluble remained at 300 sec.
"CC(C)(CO)CNc1nc(NCCS(=O)(=O)[O-])nc(Nc2ccc(C=Cc3ccc(Nc4nc(NCCS(=O)(=O)[O-])nc(NCC(C)(C)CO)n4)cc3S(=O)(=O)[O-])c(S(=O)(=O)[O-])c2)n1.[Na+].[Na+].[Na+].[Na+] [Comp. b, reference compound]",,some insoluble remained at 300 sec.
